Measured values from the NIST ThermoML archive (doi:10.1021/je700260f).

Conditions: Liquid, Vibrating tube method

FC(C(F)(F)F)C(F)(F)F [1,1,1,2,3,3,3-heptafluoropropane]
Conditions	mass density [kg/m3]
333.13 K, 4181 kPa	1264.9
333.13 K, 4207 kPa	1265.2
333.13 K, 4241 kPa	1265.8
333.13 K, 4278 kPa	1266.2
333.13 K, 4309 kPa	1266.6
333.13 K, 4338 kPa	1266.8
333.13 K, 4364 kPa	1267.4
333.13 K, 4398 kPa	1267.7
333.13 K, 4432 kPa	1268.2
333.13 K, 4463 kPa	1268.6
333.13 K, 4762 kPa	1272.2
333.13 K, 4802 kPa	1272.8
333.13 K, 4834 kPa	1273.3
333.13 K, 4861 kPa	1273.7
333.13 K, 4893 kPa	1274.1
333.13 K, 4916 kPa	1274.2
333.13 K, 4947 kPa	1274.6
333.13 K, 4988 kPa	1275.2
333.13 K, 5015 kPa	1275.4
333.13 K, 5055 kPa	1275.9
333.13 K, 5086 kPa	1276.3
333.13 K, 5123 kPa	1276.9
333.13 K, 5155 kPa	1277.2
333.13 K, 5191 kPa	1277.7
333.13 K, 5224 kPa	1277.9
333.13 K, 5261 kPa	1278.4
333.13 K, 5294 kPa	1278.8
333.13 K, 5325 kPa	1279.1
333.13 K, 5365 kPa	1279.6
333.13 K, 5432 kPa	1280.3
333.13 K, 5541 kPa	1281.7
333.13 K, 5612 kPa	1282.4
333.13 K, 5635 kPa	1282.8
333.13 K, 5673 kPa	1283.2
333.13 K, 25651 kPa	1419.9
333.13 K, 25679 kPa	1419.9
333.13 K, 25788 kPa	1420.5
333.13 K, 27375 kPa	1427.5
333.13 K, 27408 kPa	1427.7
333.13 K, 27436 kPa	1427.8
333.13 K, 33941 kPa	1454.3
333.13 K, 33977 kPa	1454.4
333.13 K, 34019 kPa	1454.5
333.13 K, 34054 kPa	1454.8
333.13 K, 34100 kPa	1454.9
333.13 K, 34136 kPa	1455
333.14 K, 1234 kPa	1218
333.14 K, 1254 kPa	1218.5
333.14 K, 1281 kPa	1218.9
333.14 K, 1309 kPa	1219.4
333.14 K, 1332 kPa	1220.1
333.14 K, 1355 kPa	1220.5
333.14 K, 1386 kPa	1221.1
333.14 K, 1403 kPa	1221.3
333.14 K, 1427 kPa	1221.8
333.14 K, 1448 kPa	1222.1
333.14 K, 1472 kPa	1222.6
333.14 K, 1496 kPa	1223.2
333.14 K, 1520 kPa	1223.5
333.14 K, 1540 kPa	1223.9
333.14 K, 1568 kPa	1224.4
333.14 K, 1593 kPa	1224.9
333.14 K, 1614 kPa	1225.4
333.14 K, 2164 kPa	1235.1
333.14 K, 2189 kPa	1235.5
333.14 K, 2224 kPa	1236.1
333.14 K, 2254 kPa	1236.5
333.14 K, 2277 kPa	1237
333.14 K, 2308 kPa	1237.5
333.14 K, 2330 kPa	1237.9
333.14 K, 2385 kPa	1238.7
333.14 K, 2413 kPa	1239.2
333.14 K, 2434 kPa	1239.4
333.14 K, 2460 kPa	1240
333.14 K, 2489 kPa	1240.4
333.14 K, 2516 kPa	1240.8
333.14 K, 2546 kPa	1241.2
333.14 K, 2576 kPa	1241.8
333.14 K, 2634 kPa	1242.8
333.14 K, 2657 kPa	1243.2
333.14 K, 2684 kPa	1243.6
333.14 K, 2716 kPa	1244.1
333.14 K, 2981 kPa	1248.1
333.14 K, 3011 kPa	1248.6
333.14 K, 3038 kPa	1249
333.14 K, 3071 kPa	1249.5
333.14 K, 3107 kPa	1249.9
333.14 K, 3140 kPa	1250.4
333.14 K, 3169 kPa	1251
333.14 K, 3205 kPa	1251.4
333.14 K, 4501 kPa	1269.1
333.14 K, 4531 kPa	1269.4
333.14 K, 4566 kPa	1269.9
333.14 K, 4601 kPa	1270.4
333.14 K, 4623 kPa	1270.6
333.14 K, 4661 kPa	1271
333.14 K, 4697 kPa	1271.7
333.14 K, 4727 kPa	1272
333.14 K, 5403 kPa	1280.1
333.14 K, 5469 kPa	1280.8
333.14 K, 5503 kPa	1281.2
333.14 K, 5584 kPa	1282.2
333.14 K, 5709 kPa	1283.6
333.14 K, 5750 kPa	1283.9
333.14 K, 5782 kPa	1284.4
333.14 K, 5815 kPa	1284.8
333.14 K, 5845 kPa	1285.1
333.14 K, 5879 kPa	1285.5
333.14 K, 5908 kPa	1285.8
333.14 K, 5941 kPa	1286.1
333.14 K, 5970 kPa	1286.4
333.14 K, 6009 kPa	1287
333.14 K, 6052 kPa	1287.3
333.14 K, 6090 kPa	1287.8
333.14 K, 6133 kPa	1288.1
333.14 K, 6158 kPa	1288.5
333.14 K, 6191 kPa	1289
333.14 K, 6216 kPa	1289.2
333.14 K, 6250 kPa	1289.5
333.14 K, 6472 kPa	1291.9
333.14 K, 6498 kPa	1292.3
333.14 K, 6533 kPa	1292.6
333.14 K, 6555 kPa	1292.7
333.14 K, 6594 kPa	1293.3
333.14 K, 6633 kPa	1293.6
333.14 K, 6668 kPa	1293.9
333.14 K, 6702 kPa	1294.2
333.14 K, 6728 kPa	1294.7
333.14 K, 6758 kPa	1295
333.14 K, 6922 kPa	1296.7
333.14 K, 7050 kPa	1297.8
333.14 K, 7081 kPa	1298.2
333.14 K, 7125 kPa	1298.6
333.14 K, 7151 kPa	1299
333.14 K, 7182 kPa	1299.2
333.14 K, 7209 kPa	1299.5
333.14 K, 7243 kPa	1299.9
333.14 K, 7278 kPa	1300.2
333.14 K, 7311 kPa	1300.4
333.14 K, 7341 kPa	1300.7
333.14 K, 7368 kPa	1301.1
333.14 K, 7402 kPa	1301.4
333.14 K, 7424 kPa	1301.7
333.14 K, 7460 kPa	1302.1
333.14 K, 7496 kPa	1302.4
333.14 K, 7527 kPa	1302.6
333.14 K, 7559 kPa	1303
333.14 K, 7590 kPa	1303.3
333.14 K, 7632 kPa	1303.7
333.14 K, 7670 kPa	1304.1
333.14 K, 7702 kPa	1304.3
333.14 K, 7735 kPa	1304.7
333.14 K, 7767 kPa	1305.1
333.14 K, 7795 kPa	1305.2
333.14 K, 7826 kPa	1305.5
333.14 K, 7864 kPa	1305.9
333.14 K, 7893 kPa	1306.1
333.14 K, 7930 kPa	1306.5
333.14 K, 7957 kPa	1306.8
333.14 K, 7996 kPa	1307.2
333.14 K, 8029 kPa	1307.4
333.14 K, 8057 kPa	1307.7
333.14 K, 8080 kPa	1307.9
333.14 K, 25452 kPa	1419
333.14 K, 25486 kPa	1419
333.14 K, 25524 kPa	1419.3
333.14 K, 25553 kPa	1419.5
333.14 K, 25586 kPa	1419.6
333.14 K, 25615 kPa	1419.7
333.14 K, 25704 kPa	1419.9
333.14 K, 25735 kPa	1420.1
333.14 K, 25762 kPa	1420.4
333.14 K, 25814 kPa	1420.7
333.14 K, 25854 kPa	1420.9
333.14 K, 25874 kPa	1420.9
333.14 K, 25917 kPa	1421.1
333.14 K, 25950 kPa	1421.3
333.14 K, 25976 kPa	1421.4
333.14 K, 26005 kPa	1421.5
333.14 K, 26036 kPa	1421.6
333.14 K, 26069 kPa	1421.8
333.14 K, 26295 kPa	1422.8
333.14 K, 26327 kPa	1422.9
333.14 K, 26353 kPa	1423.1
333.14 K, 26386 kPa	1423.1
333.14 K, 26411 kPa	1423.3
333.14 K, 26444 kPa	1423.3
333.14 K, 26469 kPa	1423.6
333.14 K, 26504 kPa	1423.7
333.14 K, 27209 kPa	1426.8
333.14 K, 27239 kPa	1427
333.14 K, 27284 kPa	1427.1
333.14 K, 27317 kPa	1427.3
333.14 K, 27346 kPa	1427.5
333.14 K, 27465 kPa	1428
333.14 K, 27494 kPa	1428
333.14 K, 27531 kPa	1428.3
333.14 K, 27561 kPa	1428.5
333.14 K, 27595 kPa	1428.4
333.14 K, 28013 kPa	1430.3
333.14 K, 28047 kPa	1430.5
333.14 K, 28080 kPa	1430.6
333.14 K, 28109 kPa	1430.9
333.14 K, 28138 kPa	1430.9
333.14 K, 28167 kPa	1431
333.14 K, 28201 kPa	1431.2
